Measured values published in PubChem BioAssay AID328 (DTP/NCI, 2004).
Values joined by “and” are separate entries in the source; they are usually repeats but may differ in a detail not shown here. Identical values can stand only once. Toxic doses and inconclusive results are not listed. Rule for the calls: active = survival T/C of 150% or more; inactive = T/C below 125% in these data.

Tests used:
[1] = test system: BDF1 mice, P388 leukemia ip; experiment: NCI In Vivo Anticancer Drug Screen. Data for tumor model P388 Leukemia (intraperitoneal) in B6D2F1 (BDF1) mice; conditions: endpoint: mean survival time, schedule: Q01DX009 (ip), vehicle: water, higher = longer survival
Procedure, shortened: (§1)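 Steps: implant the tumour, treat one group with compound and another with vehicle, record survival, then divide treated by control.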

[2] = test system: BDF1 mice, P388 leukemia ip, median survival T/C; experiment: as above; conditions: endpoint: median survival time, higher = longer survival
Procedure, shortened: as §1

Measured: T/C

COc1cc2cnccc2cc1OCc1ccccc1
inactive: [1]; dose: 6.25 mg/kg/injection 95 % of control | [1]; dose: 12.5 mg/kg/injection 100 % of control | [1]; dose: 25.0 mg/kg/injection 106 % of control | [1]; dose: 50.0 mg/kg/injection 108 % of control | [1]; dose: 100.0 mg/kg/injection 90 % of control | [1]; dose: 200.0 mg/kg/injection 100 % of control

CCC[CH2][Sn]1([CH2]CCC)[O]OC(C)(CC)[O]1 (configuration not stated)
inactive: [2]; dose: 0.69 mg/kg/injection, schedule: Q01DX009 (ip), vehicle: saline with Tween-80 108 % of control | [2]; dose: 1.04 mg/kg/injection, schedule: Q01DX009 (ip), vehicle: saline with Tween-80 104 % of control | [2]; dose: 1.56 mg/kg/injection, schedule: Q01DX009 (ip), vehicle: saline with Tween-80 120 % of control | [2]; dose: 2.35 mg/kg/injection, schedule: Q01DX009 (ip), vehicle: saline with Tween-80 104 % of control

c1ccc(-c2oc3ccc4ccccc4c3c2-c2ccc(OCCN3CCCC3)cc2)cc1
inactive: [2]; dose: 10.0 mg/kg/injection, schedule: Q01DX009 (ip), vehicle: Klucel (hydroxypropylcellulose) (HPC) 105 % of control | [2]; dose: 20.0 mg/kg/injection, schedule: Q01DX009 (ip), vehicle: Klucel (hydroxypropylcellulose) (HPC) 95 % of control | [2]; dose: 40.0 mg/kg/injection, schedule: Q01DX009 (ip), vehicle: Klucel (hydroxypropylcellulose) (HPC) 105 % of control | [2]; dose: 80.0 mg/kg/injection, schedule: Q01DX009 (ip), vehicle: Klucel (hydroxypropylcellulose) (HPC) 100 % of control

ClC1=C(Cl)C2(Cl)C(Br)C(Br)C1(Cl)C2(Cl)Cl (configuration not stated)
inactive: [2]; dose: 25.0 mg/kg/injection, schedule: Q04DX003 (ip), vehicle: other 118 % of control | [2]; dose: 50.0 mg/kg/injection, schedule: Q04DX003 (ip), vehicle: other 109 % of control | [2]; dose: 100.0 mg/kg/injection, schedule: Q01DX009 (ip), vehicle: saline with Tween-80 90 % of control | [2]; dose: 100.0 mg/kg/injection, schedule: Q04DX003 (ip), vehicle: other 100 % of control and 104 % of control | [2]; dose: 200.0 mg/kg/injection, schedule: Q01DX009 (ip), vehicle: saline with Tween-80 100 % of control | [2]; dose: 200.0 mg/kg/injection, schedule: Q04DX003 (ip), vehicle: Klucel (hydroxypropylcellulose) (HPC) 90 % of control | [2]; dose: 400.0 mg/kg/injection, schedule: Q01DX009 (ip), vehicle: saline with Tween-80 110 % of control | [2]; dose: 400.0 mg/kg/injection, schedule: Q04DX003 (ip), vehicle: other 100 % of control
